Experiments:
patients with HD = assay: Phase II randomized, double-blind, placebo-controlled clinical trial of laquinimod in Huntington's disease; type: in vivo, human
Method: A phase II, multi-centered, multinational, randomized, parallel-group, double-blinded, placebo-controlled study is conducted to evaluate the safety and efficacy of laquinimod (0.5, 1.0 and 1.5 mg/day) versus placebo in patients with HD.
This study includes 4 treatment arms, with approximately 100 patients per treatment arm and approximately 400 patients in total. The study is conducted in approximately 30 centers in Canada, USA and Europe.
The study population is comprised of patients with adult onset HD, with a cytosine-adenosine-guanine (CAG) repeat length between 40 and 49, inclusive. The basic eligibility criteria selects a population with symptoms of HD, as assessed by a Unified HD Rating Scale—Total Motor Score (UHDRS-TMS)>5, but with a largely retained functional capacity, as assessed with a Unified HD Rating Scale—Total Functional Capacity (UHDRS-TFC) score≧8.
The dose levels of laquinimod are 0.5 mg/day, 1.0 mg/day and 1.5 mg/day. Every patient takes 3 capsules once daily at the same time of the day for the whole study period.
The Laqunimod Treatment Arms are as follows: • 1.5 mg LAQ/day: patients randomized to laquinimod 1.5 mg qd (i.e., once daily) treatment arm receive 3 capsules of 0.5 mg laquinimod daily. • 1.0 mg LAQ/day: patients randomized to laquinimod 1.0 mg qd treatment arm receive 2 capsules of 0.5 mg laquinimod and 1 capsule of matching placebo daily. • 0.5 mg LAQ/day: patients randomized to laquinimod 0.5 mg qd treatment arm receive 1 capsule of 0.5 mg laquinimod and 2 capsules of matching placebo daily.
The 0.5 mg laquinimod capsules were prepared using 0.534 mg of laquinimod sodium per capsule (which is equivalent to 0.5 mg of laquinimod acid). The capsules were prepared using a blend proportional to the 0.6 mg capsules described in PCT International Application No. PCT/US2007/013721 (WO 2007/146248). The capsules were prepared according to the method described in PCT international Application No. PCT/US2007/013721 (WO 2007/146248), which is hereby incorporated by reference into this application.
This is a multinational, multicenter, randomized, double-blind, parallel-group, placebo-controlled study to evaluate the safety and clinical effect of daily oral administration of laquinimod (0.5 mg, 1.0 mg, or 1.5 mg) in patients with HD.
Patients are treated with laquinimod for 12 months, and safety and efficacy are assessed after 1, 3, 6, 9 and 12 months of treatment. Eligible subjects are randomized in a 1:1:1:1 ratio into one of the following treatment arms: • 1. Laquinimod capsule 0.5 mg (Total of 0.5 mg) • 2. Laquinimod capsules 0.5 mg×2 (Total of 1.0 mg) • 3. Laquinimod capsules 0.5 mg×3 (Total of 1.5 mg) • 4. Matching placebo
The following assessments are performed at the specified time points: • 1. Eligibility criteria is reviewed and confirmed at screening and baseline. • 2. Vital signs are measured at each study visit. • 3. A physical examination is performed at each study visit. • 4. The following safety clinical laboratory tests are performed: • a) Complete blood count (CBC) with differential at each study visit. • b) Serum chemistry (including electrolytes, liver enzymes, urea, creatinine, glucose, total protein, albumin, direct and total bilirubin, Creatinephosphokinase (CPK), serum conventional C-reactive protein (CRP), fibrinogen and pancreatic amylase)—at all scheduled visits. […]

clinical = assay: clinical; design: species or system humans; settings: human, in vivo
[1] = system: patients with relapsing remitting MS; settings: after 1 year of treatment; cited from earlier work
CYP3A4 = target: T1, CYP3A4 (Homo sapiens, UniProt P08684); assay: Metabolism of laquinimod in the liver; type: in vivo; settings: humans
T1 construct: from tissue; host or cells: human liver (in vivo)
T1 sequence (P08684 whole entry): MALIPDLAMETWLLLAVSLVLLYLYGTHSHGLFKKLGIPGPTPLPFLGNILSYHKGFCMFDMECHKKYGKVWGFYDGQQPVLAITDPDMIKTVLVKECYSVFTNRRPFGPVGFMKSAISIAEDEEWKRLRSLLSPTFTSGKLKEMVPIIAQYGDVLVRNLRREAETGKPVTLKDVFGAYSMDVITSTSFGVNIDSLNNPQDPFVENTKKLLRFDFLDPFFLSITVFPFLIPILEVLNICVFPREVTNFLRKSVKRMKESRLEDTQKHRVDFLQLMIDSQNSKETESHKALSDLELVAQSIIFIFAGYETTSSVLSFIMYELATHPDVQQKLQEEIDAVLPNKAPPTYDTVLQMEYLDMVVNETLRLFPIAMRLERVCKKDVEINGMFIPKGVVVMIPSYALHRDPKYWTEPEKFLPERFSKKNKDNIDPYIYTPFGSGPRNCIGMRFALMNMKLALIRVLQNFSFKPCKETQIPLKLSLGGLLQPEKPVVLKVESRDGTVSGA

[2] = 0.5, 1.0 and 1.5 mg/day oral vs Placebo Arm, 12 months

CCN(C(=O)c1c(O)c2c(Cl)cccc2n(C)c1=O)c1ccccc1 [laquinimod]
Progression (rate of change) of CIBIC-Plus global score (patients with HD; [2]): slower
Progression (rate of change) of HADS (patients with HD; [2]): slower
Progression (rate of change) of PBA (short) (patients with HD; [2]): slower
Progression (rate of change) of Physical Performance Test (PPT) score (patients with HD; [2]): slower
Progression (rate of change) of Q-motor assessments score (patients with HD; [2]): slower
Progression (rate of change) of UHDRS-FA score (patients with HD; [2]): slower
Progression (rate of change) of UHDRS-TMS (patients with HD; [2]): slower
Progression (rate of change) of cognitive assessment battery (CAB) (patients with HD; [2]): slower
Progression (rate of change) of deterioration of functional capacity, UHDRS-TFC score (patients with HD; [2]): slower
Progression (rate of change) of work productivity and quality of life (HD-QoL) (patients with HD; [2]): slower
Progression (rate of change) of brain atrophy (whole brain, caudate, white matter, ventricular volume) (patients with HD; 0.5, 1.0 and 1.5 mg/day oral vs Placebo Arm, MRI, 12 months): slower
treatment of symptomatic early HD patients (patients with HD; 0.5, 1.0 and 1.5 mg/day oral, UHDRS-TMS >5 and/or UHDRS-TFC ≧8 at baseline): effective
Vd (clinical): ~10 L
fraction unbound (clinical): < 0.02
half-life (clinical): ~80 h
bioavailability (clinical; po): ~90%
oral clearance (clinical; po): ~0.09 L/h
effect on brain atrophy and disability progression [1]: benefit
metabolism by CYP3A4 in the liver (CYP3A4): extensively metabolized
